Assays:
Type in all cases: functional
[1] = Antiplatelet activity in rat platelet rich plasma assessed as drug level causing inhibition of arachidonic acid-stimulated platelet aggregation pretreated 2 mins before arachidonic acid challenge
[2] = Antiplatelet activity in rat platelet rich plasma assessed as drug level causing inhibition of ADP-stimulated platelet aggregation pretreated 2 mins before ADP challenge
[3] = Antiplatelet activity in rat platelet rich plasma assessed as drug level causing inhibition of collagen-stimulated platelet aggregation pretreated 2 mins before collagen challenge

## Cc1cc(O)c2c(c1)Cc1cccc(O)c1C2=O
[1]
  Activity: >0.25 mg/mL
[2]
  Activity: >0.25 mg/mL
[3]
  Activity: >0.25 mg/mL

## COc1c(O[C@@H]2O[C@H](CO)[C@@H](O)[C@H](O)[C@H]2O)cc2c(c1O)C(=O)c1c(cc(C)c(O)c1OC)C2=O
[1]
  Activity: 0.05 mg/mL
[2]
  Activity: 0.05 mg/mL
[3]
  Activity: 0.1 mg/mL

## COc1cc2c(c(OC)c1OC)C(=O)c1c(cc(C)c(O[C@@H]3O[C@H](CO)[C@@H](O)[C@H](O)[C@H]3O)c1OC)C2=O
[1]
  Activity: 0.025 mg/mL
[2]
  Activity: 0.025 mg/mL
[3]
  Activity: 0.05 mg/mL

## COc1c(O[C@@H]2O[C@H](CO)[C@@H](O)[C@H](O)[C@H]2O)c(C)cc2c1C(=O)c1c(O)cccc1C2=O
[1]
  Activity: 0.05 mg/mL
[2]
  Activity: 0.25 mg/mL
[3]
  Activity: 0.1 mg/mL

## O=C1c2cccc(O)c2C(=O)c2c(O)cc(CO)cc21 [ALOE-EMODIN]
[1]
  Activity: 0.25 mg/mL
[2]
  Activity: >0.25 mg/mL
[3]
  Activity: 0.25 mg/mL

## O=C1c2ccc(O)cc2C(=O)c2ccc(O)cc21 [ANTHRAFLAVICACID]
[1]
  Activity: >0.25 mg/mL
[2]
  Activity: >0.25 mg/mL
[3]
  Activity: >0.25 mg/mL

## O=C1c2ccccc2C(=O)c2c1ccc(O)c2O [ATHRAQUINONES A]
[1]
  Activity: >0.25 mg/mL
[2]
  Activity: >0.25 mg/mL
[3]
  Activity: >0.25 mg/mL

## COc1c(O)cc2c(c1O)C(=O)c1c(cc(C)c(O)c1OC)C2=O [AURANTIOOBTUSIN]
[1]
  Activity: >0.25 mg/mL
[2]
  Activity: >0.25 mg/mL
[3]
  Activity: >0.25 mg/mL

## COc1cc2c(c(OC)c1OC)C(=O)c1c(cc(C)c(O)c1OC)C2=O [CHRYSOOBTUSIN]
[1]
  Activity: 0.25 mg/mL
[2]
  Activity: 0.25 mg/mL
[3]
  Activity: 0.25 mg/mL

## Cc1cc(O)c2c(c1)C(=O)c1cccc(O)c1C2=O [CHRYSOPHANOL]
[1]
  Activity: >0.25 mg/mL
[2]
  Activity: >0.25 mg/mL
[3]
  Activity: >0.25 mg/mL

## O=C1c2cccc(O)c2C(=O)c2c(O)cccc21 [DANTHRON]
[1]
  Activity: >0.25 mg/mL
[2]
  Activity: >0.25 mg/mL
[3]
  Activity: >0.25 mg/mL

## Cc1cc(O)c2c(c1)C(=O)c1cc(O)cc(O)c1C2=O [EMODIN]
[1]
  Activity: >0.25 mg/mL
[2]
  Activity: >0.25 mg/mL
[3]
  Activity: >0.25 mg/mL

## COc1c(O)c(C)cc2c1C(=O)c1c(O)cccc1C2=O [OBTUSIFOLIN]
[1]
  Activity: 0.25 mg/mL
[2]
  Activity: >0.25 mg/mL
[3]
  Activity: 0.25 mg/mL

## COc1cc(O)c2c(c1)C(=O)c1cc(C)cc(O)c1C2=O [PHYSCION]
[1]
  Activity: 0.25 mg/mL
[2]
  Activity: 0.25 mg/mL
[3]
  Activity: >0.25 mg/mL

## O=C1c2ccccc2C(=O)c2c(O)ccc(O)c21 [QUINIZARIN]
[1]
  Activity: >0.25 mg/mL
[2]
  Activity: >0.25 mg/mL
[3]
  Activity: >0.25 mg/mL

## O=C(O)c1cc(O)c2c(c1)C(=O)c1cccc(O)c1C2=O [RHEIN]
[1]
  Activity: 0.25 mg/mL
[2]
  Activity: 0.25 mg/mL
[3]
  Activity: 0.25 mg/mL

Source: ChEMBL document CHEMBL1151154, “Potential inhibitors of platelet aggregation from plant sources, V. Anthraquinones from seeds of Cassia obtusifolia and related compounds” (1990)
